# Laboratory results as given in patent US20260207564A1, “DOSAGE REGIME OF ORFORGLIPRON FOR TREATING A SUBJECT WITH TYPE 2 DIABETES (T2D), OBESITY, OR OVERWEIGHT WITH AT LEAST ONE WEIGHT RELATED COMORBIDITY” (Eli Lilly and Company, priority 2022, published 2026).
# Where two headings read alike, the source gives them in different places.
# Columns and labels:
# [1] = type: in vivo, human; conditions: for percentage of patients who attained an HbA1c of 7% or less: 26 weeks
# Experimental: Two Phase 2 studies have evaluated the safety and efficacy of Compound 1a for the treatment of T2D and another for treatment of obesity or overweight with at least one weight related comorbidity.
# The 36 and 45 mg cohorts were subdivided in a 36 mg-1 and 36 mg-2 as well as 45 mg-1 and 45 mg-2 respectively, as different starting doses, dose escalations and dose escalation steps were investigated in these subgroup cohorts (FIG. 4).
# Eligible male or female participants were >18 years of age with T2D with a HbA1c 7.0% to 10.5% and a body mass index (BMI) of ≥23 kg/m2, treated with diet and exercise alone or with a stable dose of metformin and with a stable body weight (≤5% body weight gain and/or loss) for at least 3 months prior to screening/Visit 1.
# The study period included a 2-week screening/lead in period and a 26-week treatment period. During the treatment period, doses were escalated for all treatment groups. The dose escalation period ranged from 4 to 12 weeks depending on dose group. The initial dose was 2 or 3 mg followed by additional escalation steps depending on assigned cohort (FIG. 4). […] All participants were provided healthy eating and exercise education by study personnel throughout the trial.
# Key Safety and tolerability endpoints included the frequency of patient- and investigator-reported adverse events, rate and incidence of hypoglycaemia events (glucose <70 mg/dL [3.9 mmol/L] and ≥54 mg/dL [3.0 mmol/L], or glucose <54 mg/dL [3.0 mmol/L]), and change in safety laboratory parameters, electrocardiogram, and vital signs.
# The estimand used for efficacy analyses was an “efficacy estimand”, representing the average treatment effect for the randomized population if the treatment was administered as intended, thus including data from all randomized participants who received at least one dose of study drug and excluding data after permanent discontinuation of study drug. All tests of treatment effects were conducted at a 2-sided alpha level of 0.05 without adjustment for multiple comparisons, and 2-sided 95% CIs were calculated.
# Safety analyses were conducted by comparing safety of OFG with placebo and with dulaglutide irrespective of adherence to study drug. The safety analyses were conducted using the safety analysis set, which includes all randomized participants who received at least one dose of study drug. The results were presented in summary statistics, point estimates, and 95% confidence intervals along with p-values for treatment comparisons.
# [2] = Phase 1 food effect study A, single 3 mg dose, healthy adults (Example 6); type: in vivo, human; conditions: for AUC(0-inf) / Cmax / half-life: human, in vivo, oral, 3 mg; for AUC(0-inf): read-out: AUC(0-∞), geometric LS mean (geometric CV %); for Cmax: read-out: Cmax, geometric LS mean (geometric CV %); for half-life: read-out: T1/2, geometric mean (range) (converted)
# [3] = Phase 1 food effect study B, 16 mg daily dose reached by weekly escalation, healthy adults (Example 6); type: in vivo, human; conditions: for AUC(0-t): read-out: AUC(0-24), geometric LS mean (geometric CV %); for Cmax: read-out: Cmax, geometric LS mean (geometric CV %)
# [4] = human, in vivo, oral, 16 mg, STUDY B - 16 mg (with titration), Fasted
# [5] = human, in vivo, oral, 16 mg, STUDY B - 16 mg (with titration), Fed
compound,measurement,setting,value
"Cc1cc(-n2nc3c(c2-n2ccn(-c4ccc5c(cnn5C)c4F)c2=O)[C@H](C)N(C(=O)c2cc4cc([C@H]5CCOC(C)(C)C5)ccc4n2[C@@]2(c4noc(=O)[nH]4)C[C@@H]2C)CC3)cc(C)c1F [OFG, 3-[(1S,2S)-1-[5-[(4S)-2,2-dimethyloxan-4-yl]-2-[(4S)-2-(4-fluoro-3,5-dimethylphenyl)-3-[3-(4-fluoro-1-methylindazol-5-yl)-2-oxoimidazol-1-yl]-4-methyl-6,7-dihydro-4H-pyrazolo[4,3-c]pyridine-5-carbonyl]indol-1-yl]-2-methylcyclopropyl]-4H-1,2,4-oxadiazol-5-one, 0.5 Ca hydrate]",percentage of patients who attained an HbA1c of 7% or less,[1]; across OFG dose groups,65.2% to 95.8
same,most common adverse events,[1]; in vivo,"gastrointestinal, mild to moderate in severity"
same,pulse rate changes from baseline,[1]; in vivo,+3.0 to +6.1 bpm
same,systolic or diastolic blood pressure compared with dulaglutide or placebo,[1]; in vivo,no statistically significant differences
same,fasting glucose,[1]; versus placebo,significant improvements versus placebo
same,mean changes from baseline in body weight,"[1]; week 26, OFG 3 mg",-3.7 kg
same,body weight ETD versus dulaglutide,"[1]; week 26, OFG 12 mg",-2.6 kg
same,body weight ETD versus placebo,"[1]; week 26, OFG 12 mg",-4.3 kg
same,mean changes from baseline in body weight,"[1]; week 26, OFG 12 mg",-6.5 kg
same,body weight ETD versus dulaglutide,"[1]; week 26, OFG 24 mg",-5.9 kg
same,body weight ETD versus placebo,"[1]; week 26, OFG 24 mg",-7.6 kg
same,mean changes from baseline in body weight,"[1]; week 26, OFG 24 mg",-9.7 kg
same,body weight ETD versus dulaglutide,"[1]; week 26, OFG 36 mg",-5.7 kg
same,body weight ETD versus placebo,"[1]; week 26, OFG 36 mg",-7.4 kg
same,mean changes from baseline in body weight,"[1]; week 26, OFG 36 mg",-9.5 kg
same,body weight ETD versus dulaglutide,"[1]; week 26, OFG 45 mg",-6.2 kg
same,body weight ETD versus placebo,"[1]; week 26, OFG 45 mg",-7.9 kg
same,mean changes from baseline in body weight,"[1]; week 26, OFG 45 mg",-10.1 kg
same,mean change in HbA1c from baseline,"[1]; week 26, across OFG dose groups",−0.77% to −1.67
same,"Tmax, median (range)","[2]; STUDY A - 3 mg, Fasted",8.0 (4.0-24.0) h
same,AUC(0-inf),"[2]; STUDY A - 3 mg, Fasted",362 ng·h/mL
same,Cmax,"[2]; STUDY A - 3 mg, Fasted",13.4 ng/mL
same,half-life,"[2]; STUDY A - 3 mg, Fasted",29.5 h
same,AUC(0-inf),"[2]; STUDY A - 3 mg, Fed",260 ng·h/mL
same,Cmax,"[2]; STUDY A - 3 mg, Fed",10.1 ng/mL
same,half-life,"[2]; STUDY A - 3 mg, Fed",27.9 h
same,Tmax and T½ with or without food,[2]; study A,similar
same,treatment emergent adverse events (TEAEs) severity,[2]; study A,mild
same,AUC(0-∞) lower when administered with food,"[2]; study A, single 3 mg dose",24%
same,Cmax lower in the fed state,"[2]; study A, single 3 mg dose, fed vs fasted",23%
same,"Tmax, median (range)","[3]; STUDY B - 16 mg (with titration), Fasted",8.0 (4.0-16.0) h
same,"Tmax, median (range)","[3]; STUDY B - 16 mg (with titration), Fed",8.0 (4.0-24.0) h
same,AUC(0-t),[3]; [4],1200 ng·h/mL
same,Cmax,[3]; [4],80.5 ng/mL
same,half-life,"[3]; human, in vivo, oral, 16 mg, STUDY B - 16 mg (with titration), Fasted, read-out: T1/2, geometric mean (range) (converted)",26 h
same,AUC(0-t),[3]; [5],1050 ng·h/mL
same,Cmax,[3]; [5],67.5 ng/mL
same,TEAE decreased appetite,[3]; study B,69.7%
same,TEAE nausea,[3]; study B,48.5%
same,TEAE vomiting,[3]; study B,45.5%
same,TEAEs occurrence over dosing,[3]; study B,occurred most often with the starting dose and decreased with dose escalation
same,Tmax and T½ with or without food,[3]; study B,similar
same,treatment emergent adverse events (TEAEs) severity,[3]; study B,mild
same,AUC(0-24) lower when administered with food,"[3]; study B, 16 mg daily dose",18%
same,Cmax lower in the fed state,"[3]; study B, 16 mg daily dose, fed vs fasted",21%
dulaglutide [reference compound],percentage of patients who attained an HbA1c of 7% or less,[1]; dulaglutide 1.5 mg,64.1%
same,pulse rate changes from baseline,[1]; in vivo,+2.3 bpm
same,mean changes from baseline in body weight,"[1]; week 26, dulaglutide",-3.9 kg
same,mean change in HbA1c from baseline,"[1]; week 26, dulaglutide 1.5 mg",−1.1%
